# Patent publication US20090318379A1, “Statins for the Treatment of Viral Influenza Infections” (priority 2006, published 2009)
# Like-named read-outs stand apart in the source and are kept apart here.
# Tests used:
# Influenza A H5N1 [1] = type: cell-based, Influenza A H5N1 (isolated in 1997 from human)
# MDCK cells [2] = system: MDCK cells
# MDCK cells [3] = system: MDCK cells; remark: listed apart in the source
# Influenza A H5N1 [4] = type: cell-based, Influenza A H5N1 (isolated in 1997 from human); remark: listed apart in the source
# Influenza A H5N1 [5] = type: cell-based, Influenza A H5N1 (isolated in 1997 from human); remark: listed apart in the source
# MDCK cells [6] = system: MDCK cells; remark: listed apart in the source
compound,measurement,setting,value
"NC(=O)c1ncn([C@@H]2O[C@H](CO)[C@@H](O)[C@H]2O)n1 [RIBAVIRIN, Ribavirin, reference compound]",Number of plaques,Influenza A H5N1 [1],11000
same,Cytotoxicity,MDCK cells [2],No
same,Cytotoxicity in virus yield reduction assay,MDCK cells [3],No
same,No. of plaque 1st well,Influenza A H5N1 [4],134
same,No. of plaque 2nd well,Influenza A H5N1 [4],131
same,No. of plaque 3rd well,Influenza A H5N1 [4],132
same,No. of plaque,Influenza A H5N1 [5],0
same,Cytotoxicity,MDCK cells [6],No
